As a reminder, the ED50 is the dose that gives a 50% effect, or the effect in half of the subjects.

Holding throughout (conditions): Canis lupus familiaris
The subject of assay [1] is Canis familiaris. Briefly: Beta-adrenergic blocking activity in anesthetized dog, by the inhibition of isoproterenol -induced bronchodilatation after iv administration; No effect at dose up to 1 to 3 mg/kg iv. The format is functional, organism-based.
Assay [2] concerns Canis familiaris. The assay is described as follows: Beta-adrenergic blocking activity in anesthetized dog, by the inhibition of isoproterenol -induced tachycardia after iv administration; No effect at dose up to 1 to 3 mg/kg iv. The format is functional, organism-based.
Assay [3] has as its system Canis familiaris. The assay is described as follows: Beta-adrenergic blocking activity in anesthetized dog, by the inhibition of isoproterenol -induced hypotension after iv administration; No effect at dose up to 1 to 3 mg/kg iv. Type of assay: functional, organism-based.
Assay [4] has as its system Canis familiaris. Briefly: Beta-adrenergic blocking activity in anesthetized dog, by the inhibition of isoproterenol -induced bronchodilatation after iv administration. Type of assay: functional.
In assay [5] the test system is Canis familiaris. The assay is described as follows: Beta-adrenergic blocking activity in anesthetized dog, by the inhibition of isoproterenol -induced hypotension after iv administration. Type of assay: functional.
In assay [6] the test system is Canis familiaris. Briefly: Beta-adrenergic blocking activity in anesthetized dog, by the inhibition of isoproterenol -induced tachycardia after iv administration. Type of assay: functional.
Assay [7] relates to Canis familiaris. Briefly: Beta-adrenergic blocking activity in anesthetized dog, by the inhibition of isoproterenol -induced bronchodilatation after iv administration; No effect at dose up to 1 to 3 mg/kg. Type of assay: functional, organism-based.

As for `O=C(O)C(O)COc1nsnc1N1CCOCC1` (configuration not stated), the ED50 entry in assay [1], in assay [2] and in assay [3] was “No effect” in each case.
With `CC(C)(C)NC[C@H](O)COc1nsnc1N1CCOCC1` [TIMOLOL], the figures for the ED50 in assay [4], in assay [5] and in assay [6] were 0.9 µg/kg, 2.8 µg/kg and 5.5 µg/kg, respectively.
For `CC(C)(C)NCC(O)COc1nsnc1NCCO` (configuration not stated) the same measures were 5.4 µg/kg, 19.9 µg/kg and 38.1 µg/kg.
As to `CC(C)(C)NCC(O)COc1nsnc1N(CCO)CC(=O)O` (configuration not stated), the ED50 entry in assay [7], in assay [2] and in assay [3] was “No effect” each time.

These data come from ChEMBL document CHEMBL1121622, “Urinary metabolites of timolol from humans and laboratory animals. Syntheses and beta-adrenergic blocking activities” (1980).
